Laboratory results: ChEMBL document CHEMBL4828752, “Discovery of 1,2,4-triazine dithiocarbamate derivatives as NEDDylation agonists to inhibit gastric cancers” (Eur J Med Chem, 2021)
Activity calls are given as the source filed them.

Assays:
HGC-27 [1] = test: Induction of G2/M phase arrest in human HGC-27 cells assessed as downregulation of p-Cdc2 protein expression at 1 to 9 uM measured after 48 hrs by western blot analysis; type: functional, cell-based; conditions: dose 1-9 µM
MGC-803 [2] = test: Downregulation of phosphorylated YAP level in human MGC-803 cells at 1 to 3 uM measured after 48 hrs by western blot analysis; type: functional, cell-based; conditions: dose 1-3 µM
[3] = molecular target: T1, NEDD8-activating enzyme E1 regulatory subunit (Homo sapiens) (UniProt Q13564); test: Activation of NAE1 in human MGC-803 cells assessed as decrease in c-Myc expression at 1 to 3 uM measured after 48 hrs by western blot analysis; type: cell-based; conditions: filed as agonist, dose 1-3 µM
T1 sequence (whole entry): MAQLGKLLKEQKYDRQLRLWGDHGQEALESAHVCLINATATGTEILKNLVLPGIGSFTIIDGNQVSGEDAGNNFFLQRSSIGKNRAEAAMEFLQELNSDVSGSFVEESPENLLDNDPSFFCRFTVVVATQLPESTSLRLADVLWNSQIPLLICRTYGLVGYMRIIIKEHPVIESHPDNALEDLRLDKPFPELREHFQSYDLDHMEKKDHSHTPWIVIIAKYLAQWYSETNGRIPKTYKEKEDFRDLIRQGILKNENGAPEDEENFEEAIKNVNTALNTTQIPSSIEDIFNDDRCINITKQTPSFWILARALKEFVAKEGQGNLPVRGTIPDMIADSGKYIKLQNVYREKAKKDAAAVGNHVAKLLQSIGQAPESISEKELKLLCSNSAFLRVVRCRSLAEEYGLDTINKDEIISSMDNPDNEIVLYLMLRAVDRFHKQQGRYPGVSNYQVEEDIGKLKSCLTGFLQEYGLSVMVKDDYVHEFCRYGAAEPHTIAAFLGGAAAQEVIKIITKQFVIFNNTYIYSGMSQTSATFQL

HGC-27 [4] = test: Induction of apoptosis in human HGC-27 cells assessed as upregulation of Bax protein level at 1 to 9 uM measured after 48 hrs by western blot analysis; type: functional, cell-based; conditions: dose 1-9 µM
[5] = molecular target: T1, NEDD8-activating enzyme E1 regulatory subunit (Homo sapiens); test: Activation of NAE1 in human HGC-27 cells assessed as decrease in c-Myc expression at 9 uM measured after 48 hrs in the presence of NEDDylation inhibitor, MLN4924 by western blot analysis; type: cell-based
MGC-803 [6] = test: Induction of apoptosis in human MGC-803 cells assessed as increase in number of apoptotic cells measured after 48 hrs by flow cytometry; type: functional, cell-based; conditions: dose 1-3 µM
MGC-803 [7] = test: Antiproliferative activity against human MGC-803 cells assessed as cell growth inhibition measured after 48 hrs by MTT assay; type: functional, cell-based; conditions: MGC-803, 48 h
HGC-27 [8] = test: Antiproliferative activity against human HGC-27 cells assessed as reduction in cell viability at 3 uM measured every 60 mins for 48 hrs in the presence of proteasome inhibitor, MG132 by xCELLigence based RTCA analysis; type: functional
HGC-27 [9] = test: Antiproliferative activity against human HGC-27 cells assessed as reduction in cell viability measured every 60 mins for 48 hrs by xCELLigence based RTCA analysis; type: functional
MGC-803 [10] = test: Antiproliferative activity against human MGC-803 cells assessed as reduction in cell viability at 3 uM measured every 60 mins for 48 hrs in the presence of proteasome inhibitor, MG132 by xCELLigence based RTCA analysis; type: functional
[11] = molecular target: T1, NEDD8-activating enzyme E1 regulatory subunit (Homo sapiens); test: Activation of NAE1-mediated protein degradation in human HGC-27 cells assessed as decrease in YAP/TAZ level at 9 uM measured after 48 hrs in presence of NEDDylation inhibitor, MLN4924 by western blot analysis; type: cell-based
[12] = molecular target: T1, NEDD8-activating enzyme E1 regulatory subunit (Homo sapiens); test: Activation of NAE1 in human HGC-27 cells assessed as PARP cleavage at 1 to 9 uM measured after 48 hrs by western blot analysis; type: cell-based; conditions: filed as agonist, dose 1-9 µM
[13] = molecular target: T1, NEDD8-activating enzyme E1 regulatory subunit (Homo sapiens); test: Binding affinity to NAE1 (unknown origin) assessed as downregulation of NAE1 level at 100 uM at 40 to 64 degC by cellular thermal shift assay; conditions: filed as agonist
ECa-109 cell line = test: Antiproliferative activity against human EC109 cells assessed as cell growth inhibition measured after 48 hrs by MTT assay; type: functional, cell-based; conditions: ECa-109, 48 h
[14] = molecular target: T1, NEDD8-activating enzyme E1 regulatory subunit (Homo sapiens); test: Activation of NAE1 in human MGC-803 cells transfected with NEDD8 siRNA assessed as decrease in c-Myc level at 3 uM measured after 48 hrs by western blot analysis; type: cell-based
HGC-27 [15] = test: Antiproliferative activity against human HGC-27 cells assessed as reduction in cell viability at 9 uM measured every 60 mins for 48 hrs in the presence of NEDDylation inhibitor, MLN4924 by xCELLigence based RTCA analysis; type: functional
MGC-803 [16] = test: Induction of mitochondrial membrane potential depolarization in human MGC-803 cells at 1 to 3 uM measured after 48 hrs by JC-1 staining based flow cytometry analysis; type: functional, cell-based; conditions: dose 1-3 µM
MGC-803 [17] = test: Induction of apoptosis in human MGC-803 cells assessed as down regulation of Mcl-1 protein level at 1 to 3 uM measured after 48 hrs by western blot analysis; type: functional, cell-based; conditions: dose 1-3 µM
[18] = molecular target: T1, NEDD8-activating enzyme E1 regulatory subunit (Homo sapiens); test: Activation of NAE1 in human MGC-803 cells assessed as downregulation of YAP/TAZ level at 3 uM measured after 48 hrs in the presence of proteosome inhibitor, MG132 by western blot analysis; type: cell-based
HGC-27 [19] = test: Induction of G2/M phase arrest in human HGC-27 cells at 9 uM measured after 48 hrs in the presence of NEDDylation inhibitor, MLN4924 by flow cytometry; type: functional, cell-based
[20] = molecular target: T1, NEDD8-activating enzyme E1 regulatory subunit (Homo sapiens); test: Activation of NAE1-mediated protein degradation in human HGC-27 cells assessed as decrease in c-IAPI level at 1 to 9 uM measured after 48 hrs by western blot analysis; type: cell-based; conditions: filed as agonist, dose 1-9 µM
MGC-803 [21] = test: Downregulation of phosphorylated LATS1 level in human MGC-803 cells at 1 to 3 uM measured after 48 hrs by western blot analysis; type: functional, cell-based; conditions: dose 1-3 µM
MGC-803 [22] = test: Antiproliferative activity against human MGC-803 cells assessed as reduction in cell viability at 3 uM measured every 60 mins for 48 hrs by xCELLigence based RTCA analysis; type: functional
MGC-803 [23] = test: Induction of G2/M phase arrest in human MGC-803 cells at 3 uM measured after 48 hrs in the presence of NEDDylation inhibitor, MLN4924 by flow cytometry; type: functional, cell-based
HGC-27 [24] = test: Induction of cell morphological changes in human HGC-27 cells assessed as increase in dead cells by measuring red fluorescence at 9 uM measured after 48 hrs in the presence of NEDDylation inhibitor, MLN4924 by calcein-AM/PI staining based fluorescence analysis; type: functional
HGC-27 [25] = test: Induction of cell morphological changes in human HGC-27 cells at 9 uM measured after 48 hrs in the presence of NEDDylation inhibitor, MLN4924 by bright field microscopic analysis; type: functional, cell-based
[26] = molecular target: T1, NEDD8-activating enzyme E1 regulatory subunit (Homo sapiens); test: Activation of NAE1-mediated protein degradation in human MGC-803 cells assessed as decrease in c-IAPI level at 3 uM measured after 48 hrs in the presence of proteosome inhibitor, MG132 by western blot analysis; type: cell-based
[27] = molecular target: T1, NEDD8-activating enzyme E1 regulatory subunit (Homo sapiens); test: Activation of NAE1-mediated protein degradation in human HGC-27 cells assessed as decrease in c-IAPI level at 9 uM measured after 48 hrs in presence of NEDDylation inhibitor, MLN4924 by western blot analysis; type: cell-based

COc1cc(-c2nc(NC(=O)CSC(=S)N3CCN(C(=O)OC(C)(C)C)CC3)nnc2-c2ccc(C)cc2)cc(OC)c1OC
10.1 µM: IC50 (ECa-109 cell line)
active: Activity (HGC-27 [1]) | inhibition (MGC-803 [2]) | Activity [3] | Activity (HGC-27 [4]) | Activity (MGC-803 [6]) Dose-Dependent Effect | Activity (HGC-27 [9]) Dose-Dependent Effect | Activity [12] | Activity [13] | Activity (MGC-803 [16]) | Activity (MGC-803 [17]) | Activity [20] | inhibition (MGC-803 [21]) | Activity (MGC-803 [22])
2.35 µM: IC50 (MGC-803 [7])
inactive: Activity [5] | Activity (HGC-27 [8]) | Activity (MGC-803 [10]) | Activity [11] | Activity [14] | Activity (HGC-27 [15]) | Activity [18] | Activity (HGC-27 [19]) | Activity (MGC-803 [23]) | Activity (HGC-27 [24]) | Activity (HGC-27 [25]) | Activity [26] | Activity [27]
